The record followed here is US8637494B2, “Method of achieving normoglycemia in diabetics by administration of Withaferin A” (priority 2010, dated 2014).

Each structure is given as a SMILES string.

Data set [1] has as its system inflammatory gene expression in human islets. Put plainly: RT-PCR human inflammation gene array, cytokine-treated islets. In kind it is cell-based. On the procedure: (§1) Cytokine & Withaferin A Treatment: After isolation and overnight culture, islets were subjected to an in-vitro model of inflammatory conditions with a cytokine cocktail of the species specific recombinant proteins (1,000 U/mL TNF-α, 1,000 U/mL IFN-γ, and 50 U/mL IL-1β dissolved in human or mouse islet culture media). Islets were treated by Withaferin A co-culture at concentrations ranging from 0.25 to 2.0 μg/mL. Control islets were cultured in the appropriate culture media lacking both the cytokine cocktail and Withaferin A. All islets were cultured in a humidified incubation chamber at 37° C. with 5% CO2 for the indicated time.

Data set [2] relates to RANTES, IP10, MIG, IL-1β, iNOS expression in human islets. The data set can be described thus: RT-PCR single gene primer assays, dose and time course in human islets. In kind it is cell-based. As for the experimental part: Cytokine & Withaferin A Treatment: After isolation and overnight culture, islets were subjected to an in-vitro model of inflammatory conditions with a cytokine cocktail of the species specific recombinant proteins (1,000 U/mL TNF-α, 1,000 U/mL IFN-γ, and 50 U/mL IL-1β dissolved in human or mouse islet culture media). […] Control islets were cultured in the appropriate culture media lacking both the cytokine cocktail and Withaferin A. All islets were cultured in a humidified incubation chamber at 37° C. with 5% CO2 for the indicated time.

The test system of data set [3] is MCP-1 and IP-10. Put plainly: Immunohistochemical staining of MCP-1 and IP-10 (HRP/DAB). The settings on record: Withaferin A and cytokine treatment vs cytokine treatment. In kind it is cell-based, human. On the procedure: Immunohistochemical Staining: After culture, islets were embedded in OCT compound, flash frozen in liquid nitrogen and stored at −80° C. until sectioning. Nine μm sections of embedded islets were taken and stained for IP-10 (1:100), MCP-1 (1:20), or insulin (1:75) using standard immunohistochemical techniques. Staining was visualized using an HRP-conjugated secondary antibody conjugated with diaminobenzidine (DAB). Samples were then counterstained with hematoxylin, dehydrated and mounted. Images were acquired.
The IP-10 expression level was examined by flow cytometry. After treatment, islets were fixed, permeablized and aliquoted to three tubes staining with anti-IP10.

Data set [4] concerns human islets. The data set can be described thus: Glucose stimulated static incubation assay, human islets. As to conditions: for stimulation index, human islets: 24 hours, no cytokines (control 3.11±1.53). On the procedure: as §1
Glucose Stimulated Static Incubation Assay: Islets in each experimental condition were incubated with low (2.8 mM) and then high (20.0 mM) concentrations of glucose solution in Functionality/Viability Medium CMRL1066 (Mediatech, Inc. Manassas, Va.) for 1 hour each at 37° C. Insulin concentrations were measured by an insulin ELISA kit (ALPCO Diagnostics, Salem, N.H.). The insulin secretion levels were normalized by total DNA of the stimulated islets. Studies were performed in triplicate with 10 islets in each group.

The test system of data set [5] is mouse islets. The data set can be described thus: Viability determination by Hoechst 342/PI, mouse islets. In kind it is cell-based. As to conditions: for viability of mouse islets exposed to cytokines: 24 hours (cytokines 78.1±11.6%, control 93.3±2.9%). On the procedure:
FIGS. 5A-5D show the optimal Withaferin A dosing is found without toxicity to islets: Human (5A and 5B) and mouse (5C and 5D) islets were cultured with Withaferin A. Samples were taken at 24 and 48 hours and stained with Hoechst 342 (all nuclei) and propidium iodide (necrotic nuclei). The percent viability was determined as the PI^+ area subtracted from the total area (Hoe342 stained). The optimal Withaferin A dose was determined to be 1.0 μg/mL Withaferin A for human islets (5A) and 0.5 μg/mL for mouse islets (5C). Asterisks above bars indicate statistically significant differences in mean values (*p<0.05 for 48 h and **p<0.001 for 24 and 48 hours) between controls and islets exposed to Withaferin A based on two-tailed Student's t test; N=10;
Mouse Isolation: Islets were isolated from male inbred B6 […] mice (C57BL/6N Inbred Mice, Harlan Labs). Collagenase type V (Sigma, C9263) (2 mg/mL) was injected through the common bile duct into the pancreas. Mouse pancreata were digested by incubation at 37° C. for 28 minutes. After washing, the islets were purified with a discontinuous Ficoll based gradient (1.085 g/mL, 1.077 g/mL, and Cap of DMEM) and centrifugation at 1000 rpm for 10 minutes. Purified islets were further purified in a 65 mm dish in DMEM by removing acinar cells to a purity of greater than 95%. Islets were cultured in DMEM supplemented with Kanamycin and 0.1% BSA, mouse islet culture media.
Viability Determination by Hoechst 342/PI: For immediate in vitro determination of necrosis, islets were incubated with Hoechst 342 (10 μg/mL) and propidium iodide (20 μg/mL) for 10 minutes at 37° C. before imaging via fluorescent microscopy. Fluorescent microsgraphs were merged in Image J (NIH Bethesda, Md.) and the propidium iodide positive area was divided by the Hoechst 342 positive area to provide a calculation of islet viability.

For data set [6], the system named is human β cells. Put plainly: TUNEL assay on sections, cytokine mediated beta cell apoptosis. Type of data set: cell-based. As to conditions: cytokine + 1.0 μg/mL, twenty four hours, vs control. On the procedure:
Islets were protected from cytokine damage by Withaferin A at both time points. Islet potency was assessed by stimulation index after 24 hours. […] Graphical representations (10E-10G) are expressed as means±STD. Significant differences between mean values groups as determined by Turkey-Kramer post-hoc tests are indicated by an asterisk (*p<0.05) above bars; and
TUNEL Assay: The TUNEL assay was performed with ApopTag® fluorescein in situ apoptosis detection kit. After deparaffinization of samples, antigen retrieval was performed with proteinase K and insulin staining was performed as described previously. Next, digoxigenin labeled nucleotides were added to DNA fragments by the enzyme terminal deoxynucelotidyl transferase (TdT) by incubation at 37° C. for 1 hour. Fluorescein labeled anti-digoxigenin antibodies are bound to the digoxigenin by incubation at room temperature for 30 minutes. Lastly DAPI is stained as described above, and slides are mounted with VecataShield and visualized with fluorescent microscopy. Apoptotic cells are counted as those that appear fluorescently green in the nuclei of insulin positive cells. All nuclei of insulin positive cells were counted and percentage of TUNEL^+ cells was calculated as number of TUNEL positive nuclei divided by the total number of insulin positive beta cells. At least 300 nuclei were counted for each condition. […]

Consider `CC1=C(CO)C(=O)O[C@@H]([C@@H](C)[C@H]2CC[C@H]3[C@@H]4C[C@H]5O[C@]56[C@@H](O)C=CC(=O)[C@]6(C)[C@H]4CC[C@]23C)C1` [Withaferin A], for which the “inflammatory gene expression, Withaferin A treated group vs control” value in data set [1] (Withaferin A alone, no cytokines) is “no significant difference”. Besides, the “inflammatory gene expression, cytokine and Withaferin A group vs cytokine alone group” value in data set [1] (human islets, FIG. 1B) is recorded as “significantly down regulated”. In data set [1] (human islets, cytokine cocktail + Withaferin A vs cytokine alone, all three donors), the “inhibition of inflammatory gene expression (FIG. 1C)” value is given as 60%-100. For the same compound, the “expression level of IL-1β, RANTES, MIG and IP-10 vs cytokine alone” value in data set [2] (1 μg Withaferin A and cytokines, 12, 24, 36 and 48 hour) was “significantly inhibited”. Also, the “expression of RANTES, IP10, MIG, IL-1β and iNOS” value in data set [2] (0.5, 1, 2 and 4 μg per mL with cytokines) is “decreased with the increase in Withaferin A concentration”. In addition, the “intensity of MCP-1 staining and IP-10 staining” value in data set [3] is “decreased the intensity”. For the same compound, the “stimulation index, human islets” value was 3.52±1.97 in data set [4] (0.5 μg/mL) and 4.21±0.41 in data set [4] (1.0 μg/mL). Besides, the “Stimulation Index vs control group” value in data set [4] (1 μg/mL Withaferin A, no cytokines (FIG. 4D)) is “no significant difference”. The “stimulation index, human islets exposed to cytokines” value in data set [4] (cytokines + 1.0 μg/mL, twenty four hours (cytokines 1.59±0.34, control 3.10±1.53)) was determined as 2.20±0.61. The “viability of mouse islets” value in data set [5] (0.25 μg/mL, 48 hours, no cytokines (control 93.8±8.0%)) came to 90.1±6.6%; in data set [5] (0.5 μg/mL, 48 hours, no cytokines (control 93.8±8.0%)) it was 94.6±4.4%; in data set [5] (1.0 μg/mL, no cytokines, time not printed (control 97.3±2.2%)), 87.8±11.1%. In addition, the “viability of mouse islets exposed to cytokines” value in data set [5] (cytokine cocktail + 0.25 μg/mL) came to 89.7±5.9%; in data set [5] (cytokine cocktail + 0.5 μg/mL), 89.9±3.6%. The “optimal Withaferin A dose without toxicity to islets” value in data set [5] (mouse islets, 24 and 48 hours) came to 0.5 µg/mL. In addition, in data set [6], the “cytokine induced β cell apoptosis (TUNEL positive staining)” value is given as “totally cancel any effect of cytokines on β cell apoptosis”.
